Measurements from article PMC7898795 (Angewandte Chemie (International Ed. in English), 2020).
Converted amounts (≈) assume the structure as drawn.

Assay: Water solubility assay
Format: physicochemical
Details: for solubility thermodynamic at 24 h: thermodynamic from solid
[1] = 50 mM TEAA buffer, pH 7.9, aqueous buffer

Row | Structure (SMILES) | solubility thermodynamic at 24 h [1] | solubility thermodynamic at 24 h (ddH2O, water) | times more water-soluble than thiostrepton, in 50 mM TEAA (pH 7.9) (ratio of solubility to that of thiostrepton in 50 mM TEAA pH 7.9) | times more water-soluble than thiostrepton, in ddH2O (ratio of solubility to that of thiostrepton in ddH2O)
1 | C=C(NC(=O)C(=C)NC(=O)c1csc(C2=N[C@@H]3c4csc(n4)[C@H]4NC(=O)c5csc(n5)[C@H]([C@](C)(O)[C@@H](C)O)NC(=O)[C@H]5CSC(=N5)/C(=C/C)NC(=O)[C@H]([C@@H](C)O)NC(=O)c5csc(n5)[C@]3(CC2)NC(=O)[C@H](C)NC(=O)C(=C)NC(=O)[C@H](C)NC(=O)[C@H]([C@@H](C)CC)N[C@@H]2C=Cc3c([C@H](C)O)cc(nc3[C@H]2O)C(=O)O[C@@H]4C)n1)C(N)=O [Thiostrepton, thiostrepton, reference compound] | 5 ± 0.2 µg/mL (≈ 3 µM) | 6.4 ± 0.1 µg/mL (≈ 3.84 µM) | – | –
2 | C=C1NC(=O)[C@H](C)NC(=O)[C@H]([C@@H](C)CC)N[C@@H]2C=Cc3c([C@H](C)O)cc(nc3[C@H]2O)C(=O)O[C@H](C)[C@@H]2NC(=O)c3csc(n3)[C@H]([C@](C)(O)[C@@H](C)O)NC(=O)[C@H]3CSC(=N3)/C(=C/C)NC(=O)[C@H]([C@@H](C)O)NC(=O)c3csc(n3)[C@]3(CCC(c4nc(C(=O)NC(CB(O)O)C(=O)NC(CB(O)O)C(N)=O)cs4)=N[C@@H]3c3csc2n3)NC(=O)[C@H](C)NC1=O (stereo partly drawn) [compound 3] | 422 ± 8.5 µg/mL (≈ 240 µM) | 170 ± 2.6 µg/mL (≈ 96.6 µM) | 84 × | 27 ×
